# Results from ChEMBL document CHEMBL3108664, “Macrocyclic drugs and clinical candidates: what can medicinal chemists learn from their properties?” (J Med Chem, 2014).
# How the values were obtained:
# Homo sapiens = experiment: Oral bioavailability in human at 3 to 15 mg/day; format: ADME, organism-based; conditions: in vivo
# [1] = Oral bioavailability in dog at 1 mg/kg; format: ADME, organism-based, Canis lupus familiaris; conditions: in vivo
# [2] = Oral bioavailability in rat at 5 mg/kg; format: ADME, organism-based; conditions: in vivo
# [3] = Oral bioavailability in human; format: ADME, organism-based; conditions: in vivo
# [4] = Apparent permeability across apical to basolateral side of human Caco2 cells at 5 uM after 120 mins by LC/MS/MS analysis; format: ADME, cell-based; conditions: Caco-2
# [5] = Oral bioavailability in mouse administered as bid; format: ADME, organism-based; conditions: in vivo
# [6] = Half life in human at 25 mg, po administered through fat rich diet; format: ADME, organism-based; conditions: in vivo
# [7] = Oral bioavailability in cancer patient at 75 mg, qd administered 5 days for every 2 weeks; format: ADME, organism-based; conditions: human, in vivo
compound,measurement,setting,value
IVERMECTIN,F,Homo sapiens,60%
C=C[C@@H]1C[C@]1(NC(=O)[C@@H]1C[C@@H]2CN1C(=O)[C@H](C(C)(C)C)NC(=O)O[C@@H]1C[C@H]1CCCCCc1nc3ccc(OC)cc3nc1O2)C(=O)NS(=O)(=O)C1CC1 [GRAZOPREVIR ANHYDROUS],bioavailability,[1],13%
same,bioavailability,[2],1%
C=CC[C@@H]1/C=C(\C)C[C@H](C)C[C@H](OC)[C@H]2O[C@@](O)(C(=O)C(=O)N3CCCC[C@H]3C(=O)O[C@H](/C(C)=C/[C@@H]3CC[C@@H](O)[C@H](OC)C3)[C@H](C)[C@@H](O)CC1=O)[C@H](C)C[C@@H]2OC [TACROLIMUS ANHYDROUS],bioavailability,[3],15%
CO[C@H]1C[C@@H]2CC[C@@H](C)[C@@](O)(O2)C(=O)C(=O)N2CCCC[C@H]2C(=O)O[C@H]([C@H](C)C[C@@H]2CC[C@@H](OCCO)[C@H](OC)C2)CC(=O)[C@H](C)/C=C(\C)[C@@H](O)[C@@H](OC)C(=O)[C@H](C)C[C@H](C)/C=C/C=C/C=C/1C [EVEROLIMUS],bioavailability,[3],20%
CN1C/C=C/CCOc2cccc(c2)-c2ccnc(n2)Nc2cccc(c2)C1 [ZOTIRACICLIB],"Papp A→B at 2 h, 5 µM",[4],28 ×10⁻⁶ cm/s
COc1cc2ncnc3c2cc1OCCCCCN(C)Cc1ccc(Br)cc1N3 [JNJ-26483327],bioavailability,[5],80%
CO[C@H]1/C=C/O[C@@]2(C)Oc3c(C)c(O)c4c(=O)c(c5oc6cc(N7CCN(CC(C)C)CC7)cc(O)c6nc-5c4c3C2=O)NC(=O)/C(C)=C\C=C\[C@H](C)[C@H](O)[C@@H](C)[C@@H](O)[C@@H](C)[C@H](OC(C)=O)[C@@H]1C [RIFALAZIL],half-life,[6],100 h
CO[C@H]1C[C@@H]2CC[C@@H](C)[C@@](O)(O2)C(=O)C(=O)N2CCCC[C@H]2C(=O)O[C@H]([C@H](C)C[C@@H]2CC[C@@H](OC(=O)C(C)(CO)CO)[C@H](OC)C2)CC(=O)[C@H](C)/C=C(\C)[C@@H](O)[C@@H](OC)C(=O)[C@H](C)C[C@H](C)/C=C/C=C/C=C/1C [TEMSIROLIMUS],bioavailability,[7],1.5%
CO[C@H]1/C=C/O[C@@]2(C)Oc3c(C)c(O)c4c(O)c(c(/C=N/N5CCN(C)CC5)c(O)c4c3C2=O)NC(=O)/C(C)=C\C=C\[C@H](C)[C@H](O)[C@@H](C)[C@@H](O)[C@@H](C)[C@H](OC(C)=O)[C@@H]1C [RIFAMPIN],bioavailability,[3],50%
CO[C@H]1/C=C/O[C@@]2(C)Oc3c(C)c(O)c4c(O)c(c(/C=N/N5CCN(C6CCCC6)CC5)c(O)c4c3C2=O)NC(=O)/C(C)=C\C=C\[C@H](C)[C@H](O)[C@@H](C)[C@@H](O)[C@@H](C)[C@H](OC(C)=O)[C@@H]1C [RIFAPENTINE],bioavailability,[3],70%
